From patent US20250230193A1, “CYCLIC COMPOUND HAVING SELECTIVE KRAS INHIBITORY EFFECT ON HRAS AND NRAS” (CHUGAI SEIYAKU KABUSHIKI KAISHA, priority 2022, published 2025)
Where a SMILES comes first, the peptide text is derived from it. Bridges are numbered along the chain shown (N, C = ends). [ ]: non-standard residue; d: D form. The star is where a group is joined. hPhe(3-Cl-4-CF3) = N[C@@H](CCc1ccc(C(F)(F)F)c(Cl)c1)C(=O)O; NPrPhe(4-CF3) = CCCN[C@@H](Cc1ccc(C(F)(F)F)cc1)C(=O)O; Abu(4,4,4-F3) = N[C@@H](CC(F)(F)F)C(=O)O; Morpholine(3S-CO) = O=C(O)[C@@H]1COCCN1; Pip(4,4-F2) = O=C(O)[C@@H]1CC(F)(F)CCN1; NMeGly(cPent) = CN[C@H](C(=O)O)C1CCCC1; Hyp = O=C(O)[C@@H]1C[C@@H](O)CN1; NMeD = CN[C@@H](CC(=O)O)C(=O)O; NMeL = CN[C@@H](CC(C)C)C(=O)O; hPip = O=C(O)[C@@H]1CCCCCN1; Pip = O=C(O)[C@@H]1CCCCN1; Morpholide = C1CN(*)CCO1; Ac5c = NC1(C(=O)O)CCCC1; Aze = O=C(O)[C@@H]1CCN1; Abu = CC[C@H](N)C(=O)O; NPrGly = CCCNCC(=O)O; NEtG = CCNCC(=O)O; Sar = CNCC(=O)O

Columns and labels:
[1] = target: GDP-bound NRAS wild-type protein (Homo sapiens, UniProt P01111); test: Binding to NRAS by surface plasmon resonance (SPR), Single Cycle Kinetics; details: KD ratio NRAS/KRAS, SPR
[2] = target: GDP-bound HRAS wild-type protein (Homo sapiens, UniProt P01112); test: Binding to HRAS by surface plasmon resonance (SPR), Single Cycle Kinetics; details: KD ratio HRAS/KRAS, SPR
Sequence of GDP-bound HRAS wild-type protein (P01112 whole entry): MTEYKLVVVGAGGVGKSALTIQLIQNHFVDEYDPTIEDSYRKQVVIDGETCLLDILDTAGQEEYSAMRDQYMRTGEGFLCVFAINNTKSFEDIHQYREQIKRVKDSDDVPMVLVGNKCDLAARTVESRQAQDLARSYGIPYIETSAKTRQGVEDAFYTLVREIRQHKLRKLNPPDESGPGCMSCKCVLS

Sequence of GDP-bound NRAS wild-type protein (P01111 whole entry): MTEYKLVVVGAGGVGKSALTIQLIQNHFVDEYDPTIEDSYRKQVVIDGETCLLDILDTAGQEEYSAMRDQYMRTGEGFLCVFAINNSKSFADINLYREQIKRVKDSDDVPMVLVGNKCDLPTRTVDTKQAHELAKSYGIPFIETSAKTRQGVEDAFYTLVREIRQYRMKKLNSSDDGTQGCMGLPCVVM

Compound: CCCN1C(=O)CN(C)C(=O)CN(CC)C(=O)[C@H]([C@@H](C)CC)NC(=O)[C@H](CC(C)C)N(C)C(=O)C[C@@H](C(=O)N2CCOCC2)N(C)C(=O)[C@H](C2CCCC2)N(C)C(=O)C2(CCCC2)NC(=O)[C@@H]2C[C@@H](OC)CN2C(=O)[C@H](CCc2ccc(C(F)(F)F)c(Cl)c2)NC(=O)CN(C)C(=O)[C@@H]1Cc1ccc(C(F)(F)F)cc1 [PP0296] ([NMeL]I[NEtG][Sar][NPrPhe(4-CF3)][Sar][hPhe(3-Cl-4-CF3)][Hyp](Me)[Ac5c][NMeGly(cPent)][NMeD]-Morpholide; lactam N-11)
- NRAS/KRAS (ratio of KD for GDP-bound NRAS wild-type to KD for KRAS) [1]: B (a compound having 3 or more and less than 10 is denoted as B)
- HRAS/KRAS (ratio of KD for GDP-bound HRAS wild-type to KD for KRAS) [2]: C (A compound having a KD ratio of 0.1 or more and less than 3 is denoted as C)

Compound: CCCN1C(=O)CN(C)C(=O)CN(CC)C(=O)[C@H]([C@@H](C)CC)NC(=O)[C@H](CC(C)C)N(C)C(=O)C[C@@H](C(=O)N2CCOCC2)N(C)C(=O)[C@H](C2CCCC2)N(C)C(=O)C2(CCCC2)NC(=O)[C@@H]2CCCCN2C(=O)[C@H](CCc2ccc(C(F)(F)F)c(Cl)c2)NC(=O)CN(C)C(=O)[C@@H]1Cc1ccc(C(F)(F)F)cc1 [PP0297] ([NMeL]I[NEtG][Sar][NPrPhe(4-CF3)][Sar][hPhe(3-Cl-4-CF3)][Pip][Ac5c][NMeGly(cPent)][NMeD]-Morpholide; lactam N-11)
- NRAS/KRAS (ratio of KD for GDP-bound NRAS wild-type to KD for KRAS) [1]: B (a compound having 3 or more and less than 10 is denoted as B)
- HRAS/KRAS (ratio of KD for GDP-bound HRAS wild-type to KD for KRAS) [2]: C (A compound having a KD ratio of 0.1 or more and less than 3 is denoted as C)

Compound: CCCN1C(=O)CN(C)C(=O)CN(CC)C(=O)[C@H]([C@@H](C)CC)NC(=O)[C@H](CC(C)C)N(C)C(=O)C[C@@H](C(=O)N2CCOCC2)N(C)C(=O)[C@H](C2CCCC2)N(C)C(=O)C2(CCCC2)NC(=O)[C@@H]2CC(F)(F)CCN2C(=O)[C@H](CCc2ccc(C(F)(F)F)c(Cl)c2)NC(=O)CN(C)C(=O)[C@@H]1Cc1ccc(C(F)(F)F)cc1 [PP0298] ([NMeL]I[NEtG][Sar][NPrPhe(4-CF3)][Sar][hPhe(3-Cl-4-CF3)][Pip(4,4-F2)][Ac5c][NMeGly(cPent)][NMeD]-Morpholide; lactam N-11)
- NRAS/KRAS (ratio of KD for GDP-bound NRAS wild-type to KD for KRAS) [1]: B (a compound having 3 or more and less than 10 is denoted as B)
- HRAS/KRAS (ratio of KD for GDP-bound HRAS wild-type to KD for KRAS) [2]: C (A compound having a KD ratio of 0.1 or more and less than 3 is denoted as C)

Compound: CCCN1C(=O)CN(C)C(=O)CN(CC)C(=O)[C@H]([C@@H](C)CC)NC(=O)[C@H](CC(C)C)N(C)C(=O)C[C@@H](C(=O)N2CCOCC2)N(C)C(=O)[C@H](C2CCCC2)N(C)C(=O)C2(CCCC2)NC(=O)[C@@H]2COCCN2C(=O)[C@H](CCc2ccc(C(F)(F)F)c(Cl)c2)NC(=O)CN(C)C(=O)[C@@H]1Cc1ccc(C(F)(F)F)cc1 [PP0299] ([NMeL]I[NEtG][Sar][NPrPhe(4-CF3)][Sar][hPhe(3-Cl-4-CF3)][Morpholine(3S-CO)][Ac5c][NMeGly(cPent)][NMeD]-Morpholide; lactam N-11)
- NRAS/KRAS (ratio of KD for GDP-bound NRAS wild-type to KD for KRAS) [1]: B (a compound having 3 or more and less than 10 is denoted as B)
- HRAS/KRAS (ratio of KD for GDP-bound HRAS wild-type to KD for KRAS) [2]: B (a compound having 3 or more and less than 10 is denoted as B)

Compound: CCCN1C(=O)CN(C)C(=O)CN(CC)C(=O)[C@H]([C@@H](C)CC)NC(=O)[C@H](CC(C)C)N(C)C(=O)C[C@@H](C(=O)N2CCOCC2)N(C)C(=O)[C@H](C2CCCC2)N(C)C(=O)C2(CCCC2)NC(=O)CN(C)C(=O)[C@H](CCc2ccc(C(F)(F)F)c(Cl)c2)NC(=O)CN(C)C(=O)[C@@H]1Cc1ccc(C(F)(F)F)cc1 [PP0300] ([NMeL]I[NEtG][Sar][NPrPhe(4-CF3)][Sar][hPhe(3-Cl-4-CF3)][Sar][Ac5c][NMeGly(cPent)][NMeD]-Morpholide; lactam N-11)
- NRAS/KRAS (ratio of KD for GDP-bound NRAS wild-type to KD for KRAS) [1]: B (a compound having 3 or more and less than 10 is denoted as B)
- HRAS/KRAS (ratio of KD for GDP-bound HRAS wild-type to KD for KRAS) [2]: C (A compound having a KD ratio of 0.1 or more and less than 3 is denoted as C)

Compound: CCCN1CC(=O)NC2(CCCC2)C(=O)N(C)[C@@H](C2CCCC2)C(=O)N(C)[C@H](C(=O)N2CCOCC2)CC(=O)N(C)[C@@H](CC(C)C)C(=O)N[C@@H]([C@@H](C)CC)C(=O)N(CC)CC(=O)N(C)CC(=O)N(CCC)[C@@H](Cc2ccc(C(F)(F)F)cc2)C(=O)N(C)CC(=O)N[C@@H](CCc2ccc(C(F)(F)F)c(Cl)c2)C1=O [PP0301] ([NMeL]I[NEtG][Sar][NPrPhe(4-CF3)][Sar][hPhe(3-Cl-4-CF3)][NPrGly][Ac5c][NMeGly(cPent)][NMeD]-Morpholide; lactam N-11)
- NRAS/KRAS (ratio of KD for GDP-bound NRAS wild-type to KD for KRAS) [1]: B (a compound having 3 or more and less than 10 is denoted as B)
- HRAS/KRAS (ratio of KD for GDP-bound HRAS wild-type to KD for KRAS) [2]: C (A compound having a KD ratio of 0.1 or more and less than 3 is denoted as C)

Compound: CCCN1C(=O)CN(C)C(=O)[C@@H]2CCN2C(=O)[C@H]([C@@H](C)CC)NC(=O)[C@@H]2CCCCCN2C(=O)C[C@@H](C(=O)N2CCOCC2)N(C)C(=O)[C@H](C2CCCC2)N(C)C(=O)C2(CCCC2)NC(=O)[C@@H]2CCCN2C(=O)[C@H](CCc2ccc(C(F)(F)F)c(Cl)c2)NC(=O)CN(C)C(=O)[C@@H]1Cc1ccc(C(F)(F)F)cc1 [PP0302] ([hPip]I[Aze][Sar][NPrPhe(4-CF3)][Sar][hPhe(3-Cl-4-CF3)]P[Ac5c][NMeGly(cPent)][NMeD]-Morpholide; lactam N-11)
- NRAS/KRAS (ratio of KD for GDP-bound NRAS wild-type to KD for KRAS) [1]: B (a compound having 3 or more and less than 10 is denoted as B)
- HRAS/KRAS (ratio of KD for GDP-bound HRAS wild-type to KD for KRAS) [2]: C (A compound having a KD ratio of 0.1 or more and less than 3 is denoted as C)

Compound: CCCN1C(=O)CN(C)C(=O)[C@@H]2CCN2C(=O)[C@H](CC)NC(=O)[C@H](CC(C)C)N(C)C(=O)C[C@@H](C(=O)N2CCOCC2)N(C)C(=O)[C@H](C2CCCC2)N(C)C(=O)C2(CCCC2)NC(=O)[C@@H]2CCCN2C(=O)[C@H](CCc2ccc(C(F)(F)F)c(Cl)c2)NC(=O)CN(C)C(=O)[C@@H]1Cc1ccc(C(F)(F)F)cc1 [PP0303] ([NMeL][Abu][Aze][Sar][NPrPhe(4-CF3)][Sar][hPhe(3-Cl-4-CF3)]P[Ac5c][NMeGly(cPent)][NMeD]-Morpholide; lactam N-11)
- NRAS/KRAS (ratio of KD for GDP-bound NRAS wild-type to KD for KRAS) [1]: B (a compound having 3 or more and less than 10 is denoted as B)
- HRAS/KRAS (ratio of KD for GDP-bound HRAS wild-type to KD for KRAS) [2]: B (a compound having 3 or more and less than 10 is denoted as B)

Compound: CCCN1C(=O)CN(C)C(=O)[C@@H]2CCN2C(=O)[C@H](CC(F)(F)F)NC(=O)[C@H](CC(C)C)N(C)C(=O)C[C@@H](C(=O)N2CCOCC2)N(C)C(=O)[C@H](C2CCCC2)N(C)C(=O)C2(CCCC2)NC(=O)[C@@H]2CCCN2C(=O)[C@H](CCc2ccc(C(F)(F)F)c(Cl)c2)NC(=O)CN(C)C(=O)[C@@H]1Cc1ccc(C(F)(F)F)cc1 [PP0304] ([NMeL][Abu(4,4,4-F3)][Aze][Sar][NPrPhe(4-CF3)][Sar][hPhe(3-Cl-4-CF3)]P[Ac5c][NMeGly(cPent)][NMeD]-Morpholide; lactam N-11)
- NRAS/KRAS (ratio of KD for GDP-bound NRAS wild-type to KD for KRAS) [1]: B (a compound having 3 or more and less than 10 is denoted as B)
- HRAS/KRAS (ratio of KD for GDP-bound HRAS wild-type to KD for KRAS) [2]: B (a compound having 3 or more and less than 10 is denoted as B)
